# Assay results from US20150245613A1 (priority 2012, published 2015).
# Like-named read-outs stand apart in the source and are kept apart here.
# Assays:
# wheat brown rust = assay: Test Example 5: controlling effect on wheat brown rust, field test (cultivar NORIN No. 61), Colby; type: in vivo, Puccinia recondita; settings: 20 days after spray
# Source text: A (theoretical) preventive value obtained in a case where the chemical suspension is sprayed=A1+((100−A1)×A2)/100
# where A1 and A2 represent (i) the preventive value obtained in a case where the compound I-1 is sprayed and (ii) the preventive value obtained in a case where fluxapyroxad is sprayed.
# Wheat seeds (cultivar: NORIN No. 61) were sown in a field in autumn of one (1) year earlier than a year when chemicals were sprayed, and the chemicals were sprayed over wheat plants at the flowering stage of the wheat plants. […] Specifically, the wheat seeds were sown in two rows with 30 cm inter-row spacing in the field in the autumn. (i) Chemical suspensions each of which contained the compound I-1 and Fluxapyroxad, (ii) a chemical suspension containing the compound I-1 and (iii) chemical suspensions each of which contained Fluxapyroxad, were diluted with water so that each ingredient of the chemical suspensions was in a predetermined amount to be used. Each of the chemical suspensions was then sprayed over the wheat plants at the flowering stage in the year. After the spray of the chemical suspensions, a pot, in which diseased wheat plants with brown rust were planted, was put in each test plot between the two rows of the wheat plants so that the wheat plants were prompted to get infected with wheat brown rust. Each test was conducted in three test plots, each of which test plots is of 0.5 m×4 m (2 m^2). In 20 days after the spray of the chemical suspensions, the occurrence of wheat brown rust was investigated in 20 flag leaves which were selected at random from one of the three test plots. An index of the occurrence (index of disease severity of wheat brown rust) was then calculated. A theoretical preventive value (an expected preventive value) obtained in a case where the chemical suspension containing the compound I-1 and Fluxapyroxad is sprayed was calculated, by use of the above Colby's formula (see Test Example 1), on the basis of (i) a preventive value obtained in a case where only the compound I-1 is sprayed and (ii) a preventive value obtained in a case where only fluxapyroxad is sprayed.
# [1] = test system: wheat Fusarium head blight; type: in vivo, Fusarium graminearum; settings: cut wheat ears, 5 days after inoculation
# [2] = test system: wheat Fusarium head blight; type: in vivo, Fusarium graminearum; settings: cut wheat ears, 5 days after inoculation; remark: listed apart in the source
structure (smiles),measurement,setting,value
"C[C@]1(CCl)CC[C@@H](Cc2ccc(Cl)cc2)[C@]1(O)Cn1cncn1 (racemic) [Compound I-1, (1RS,2SR,5SR)-5-(4-chlorobenzyl)-2-chloromethyl-2-methyl-1-(1H-1,2,4-triazole-1-ylmethyl)cyclopentanol]",Actual preventive value,"wheat brown rust; Compound I-1 7.5 g/ha, Fluxapyroxad 0 g/ha, from average disease occurrence area ratios of flag leaves",42.6
same,Actual preventive value,"wheat brown rust; Compound I-1 7.5 g/ha, Fluxapyroxad 0 g/ha, from disease occurrence ratios of flag leaves",16.4
same,Actual preventive value,"[1]; Compound I-1 5 g/ha, Fluxapyroxad 0 g/ha",13
same,Actual preventive value,"[1]; Compound I-1 10 g/ha, Fluxapyroxad 0 g/ha",39
same,Actual preventive value,"[1]; Compound I-1 20 g/ha, Fluxapyroxad 0 g/ha",61
"C[C@]1(CCl)CC[C@@H](Cc2ccc(F)cc2)[C@]1(O)Cn1cncn1 (racemic) [Compound I-2, (1RS,2SR,5SR)-2-chloromethyl-5-(4-fluorobenzyl)-2-methyl-1-(1H-1,2,4-triazole-1-ylmethy)cyclopentanol]",Actual preventive value,"[2]; Compound I-2 5 g/ha, Fluxapyroxad 0 g/ha",34
same,Actual preventive value,"[2]; Compound I-2 10 g/ha, Fluxapyroxad 0 g/ha",45
same,Actual preventive value,"[2]; Compound I-2 15 g/ha, Fluxapyroxad 0 g/ha",62
same,Actual preventive value,"[2]; Compound I-2 20 g/ha, Fluxapyroxad 0 g/ha",78
"Cn1cc(C(=O)Nc2ccccc2-c2cc(F)c(F)c(F)c2)c(C(F)F)n1 [Fluxapyroxad, 3-(difluoromethyl)-1-methyl-N-(3′,4′,5′-trifluorobiphenyl-2-yl)pyrazole-4-carboxamido]",Actual preventive value,"wheat brown rust; Compound I-1 0 g/ha, Fluxapyroxad 7.5 g/ha, from average disease occurrence area ratios of flag leaves",29.3
same,Actual preventive value,"wheat brown rust; Compound I-1 0 g/ha, Fluxapyroxad 7.5 g/ha, from disease occurrence ratios of flag leaves",6.8
same,Actual preventive value,"wheat brown rust; Compound I-1 0 g/ha, Fluxapyroxad 30 g/ha, from average disease occurrence area ratios of flag leaves",80.6
same,Actual preventive value,"wheat brown rust; Compound I-1 0 g/ha, Fluxapyroxad 30 g/ha, from disease occurrence ratios of flag leaves",64.4
same,Actual preventive value,"[1]; Compound I-1 0 g/ha, Fluxapyroxad 10 g/ha",3
same,Actual preventive value,"[1]; Compound I-1 0 g/ha, Fluxapyroxad 20 g/ha",0
same,Actual preventive value,"[1]; Compound I-1 0 g/ha, Fluxapyroxad 40 g/ha",4
same,Actual preventive value,"[2]; Compound I-2 0 g/ha, Fluxapyroxad 10 g/ha",8
same,Actual preventive value,"[2]; Compound I-2 0 g/ha, Fluxapyroxad 20 g/ha",16
same,Actual preventive value,"[2]; Compound I-2 0 g/ha, Fluxapyroxad 30 g/ha",14
same,Actual preventive value,"[2]; Compound I-2 0 g/ha, Fluxapyroxad 40 g/ha",9
